Experimental data taken from patent US8975417B2, “Pyrazolopyrrolidine derivatives and their use in the treatment of disease” (Novartis AG, priority 2013, dated 2015).

Assays:
[1] = test system: MV-4-11 cells; test: Cell growth inhibition assay (CellTiter-Glo), MV-4-11; type: cell-based; conditions: Homo sapiens, MV4-11, read-out: MV-4-11 TGI
How it was run: (§1)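 Dose-response over 3-fold dilutions from 10 μM; 0.1% DMSO control. Endpoint: CellTiter-Glo ATP signal, background-subtracted and day 0-corrected.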

[2] = biological target: His-Brd3(20-477) (Homo sapiens (Human), UniProt Q15059); test: TR-FRET in-vitro binding assay for BRD3; conditions: biochemical
How it was run: (§2)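 His-tagged BRD2(60-472), BRD3(20-477) or BRD4(44-477), 45 nM in dispensing solution, with 60 nM tetra-acetylated histone H4 peptide (AcK5/8/12/16) in dispensing solution; HEPES pH 7.5, 50 mM NaCl, 0.1% BSA, 30 °C, 35 min. Eu-anti-His6 antibody plus streptavidin-APC added for TR-FRET read-out; 8-point compound dilutions.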

[3] = biological target: His-Brd2(60-472) (Homo sapiens (Human), UniProt P25440); test: TR-FRET in-vitro binding assay for BRD2; conditions: biochemical
How it was run: as §2

[4] = biological target: His-CREBBP (1081-1197) bromodomain (Homo sapiens (Human), UniProt Q92793); test: AlphaScreen in-vitro binding assay for CREBBP; conditions: biochemical
How it was run: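 Ni-chelate acceptor and streptavidin donor beads (45 µg/mL each, in 50 mM HEPES pH 7.5, 150 mM NaCl, 0.02% BSA) were then added for 60 min at room temperature. IC50 came from 8-point non-linear regression.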

[5] = test system: THP-1 cells; test: Cell growth inhibition assay (CellTiter-Glo), THP-1; type: cell-based; conditions: Homo sapiens, read-out: THP-1 TGI
How it was run: as §1

[6] = biological target: His-Brd4(44-477) (Homo sapiens (Human), UniProt O60885); test: TR-FRET in-vitro binding assay for BRD4; conditions: biochemical
How it was run: as §2

[7] = test system: K-562 cells; test: Cell growth inhibition assay (CellTiter-Glo), K-562; type: cell-based, human; conditions: Homo sapiens, K562, read-out: K-562 TGI
How it was run: as §1

Sequence of His-Brd3(20-477) (Q15059 20-477): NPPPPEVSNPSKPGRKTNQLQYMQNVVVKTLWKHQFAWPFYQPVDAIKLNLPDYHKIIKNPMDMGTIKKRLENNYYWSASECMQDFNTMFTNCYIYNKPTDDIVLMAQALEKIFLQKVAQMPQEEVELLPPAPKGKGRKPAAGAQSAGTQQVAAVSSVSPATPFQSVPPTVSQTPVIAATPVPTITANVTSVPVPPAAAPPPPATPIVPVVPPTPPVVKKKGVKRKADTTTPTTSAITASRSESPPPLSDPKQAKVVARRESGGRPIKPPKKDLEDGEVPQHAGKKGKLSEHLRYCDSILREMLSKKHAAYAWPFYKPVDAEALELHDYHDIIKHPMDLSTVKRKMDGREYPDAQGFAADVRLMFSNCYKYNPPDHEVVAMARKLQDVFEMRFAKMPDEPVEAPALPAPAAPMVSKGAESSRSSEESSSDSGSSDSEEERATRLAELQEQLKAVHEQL
Sequence of His-Brd2(60-472) (P25440 60-472): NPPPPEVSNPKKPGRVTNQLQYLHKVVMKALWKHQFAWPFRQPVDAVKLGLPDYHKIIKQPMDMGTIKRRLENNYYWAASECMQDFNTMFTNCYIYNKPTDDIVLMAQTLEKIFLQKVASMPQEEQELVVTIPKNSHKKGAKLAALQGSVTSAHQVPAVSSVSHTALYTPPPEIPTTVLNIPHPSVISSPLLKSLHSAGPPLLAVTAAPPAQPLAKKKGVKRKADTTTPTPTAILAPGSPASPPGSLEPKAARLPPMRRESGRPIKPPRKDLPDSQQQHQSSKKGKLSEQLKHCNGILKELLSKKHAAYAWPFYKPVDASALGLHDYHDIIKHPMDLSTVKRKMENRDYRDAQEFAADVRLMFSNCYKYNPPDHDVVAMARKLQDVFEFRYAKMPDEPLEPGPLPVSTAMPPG
Sequence of His-CREBBP (1081-1197) bromodomain (Q92793 1081-1197): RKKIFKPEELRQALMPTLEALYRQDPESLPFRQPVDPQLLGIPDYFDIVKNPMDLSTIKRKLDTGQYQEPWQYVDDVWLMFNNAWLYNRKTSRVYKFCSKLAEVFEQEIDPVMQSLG

Structure (SMILES) | IC50 [2] | IC50 [3] | IC50 [4] | IC50 [6] | IC (total growth inhibition) [1] | IC (total growth inhibition) [5] | IC (total growth inhibition) [7]
CCc1nn(-c2cnc(OC)nc2OC)c2c1C(c1ccc(Cl)cc1)N(c1cc(C)c(=O)n(C)c1)C2=O (centres unmarked) [Example 60, 4-(4-chlorophenyl)-1-(2,4-dimethoxypyrimidin-5-yl)-5-(1,5-dimethyl-6-oxo-1,6-dihydropyridin-3-yl)-3-ethyl-4,5-dihydropyrrolo[3,4-c]pyrazol-6(1H)-one] | 120 nM | 160 nM | 8800 nM | 140 nM | 0.154 µM | 0.302 µM | > 10 µM
COc1ncc(-n2nc3c(c2C(C)C)[C@@H](c2ccc(Cl)cc2)N(c2cc(C)c4onc(C)c4c2)C3=O)c(OC)n1 [Example 62, (R)-4-(4-chlorophenyl)-2-(2,4-dimethoxypyrimidin-5-yl)-5-(3,7-dimethylbenzo[d]-isoxazol-5-yl)-3-isopropyl-4,5-dihydropyrrolo[3,4-c]pyrazol-6(2H)-one] | 72 nM | 60 nM | 1700 nM | 67 nM | 0.105 µM | 0.174 µM | > 10 µM
COc1ncc(-n2nc3c(c2C(C)C)C(c2ccc(Cl)cc2)N(c2cc(C)c4nnc(C)n4c2)C3=O)c(OC)n1 (centres unmarked) [Example 67, 4-(4-chlorophenyl)-2-(2,4-dimethoxypyrimidin-5-yl)-5-(3,8-dimethyl-[1,2,4]triazolo-[4,3-a]pyridin-6-yl)-3-isopropyl-4,5-dihydropyrrolo[3,4-c]pyrazol-6(2H)-one] | 28 nM | 43 nM | 2800 nM | 24 nM | 0.0196 µM | 0.0385 µM | > 10 µM
CCc1c2c(nn1C1CC1)C(=O)N(c1cc(C)c(=O)n(C)c1)C2c1ccc(Cl)cc1 (centres unmarked) [Example 68] | 40 nM | 37 nM | 950 nM | 44 nM | 0.0692 µM | 0.117 µM | > 10 µM

More lines, main results first:

IC50 [2] | IC50 [3] | IC50 [4] | IC50 [6] | Structure (SMILES) | IC (total growth inhibition) [1] | IC (total growth inhibition) [5] | IC (total growth inhibition) [7]
88 nM | 130 nM | 2500 nM | 90 nM | Cc1nn(C(C)C)c2c1C(c1ccc(Cl)cc1)N(c1cc(C)c(=O)n(C)c1)C2=O (centres unmarked) [Example 63, 4-(4-chlorophenyl)-5-(1,5-dimethyl-6-oxo-1,6-dihydropyridin-3-yl)-1-isopropyl-3-methyl-4,5-dihydropyrrolo[3,4-c]pyrazol-6(1H)-one] | 0.0509 µM | 0.115 µM | > 10 µM
110 nM | 180 nM | 400 nM | 130 nM | Cc1cc(N2C(=O)c3nn(C(C)C)c(C)c3C2c2ccc(Cl)cc2)cn(C)c1=O (centres unmarked) [Example 64, 4-(4-chlorophenyl)-5-(1,5-dimethyl-6-oxo-1,6-dihydropyridin-3-yl)-2-isopropyl-3-methyl-4,5-dihydropyrrolo[3,4-c]pyrazol-6(2H)-one] | 0.0423 µM | 0.113 µM | > 10 µM
130 nM | 240 nM | 420 nM | 200 nM | Cc1c2c(nn1C(C)C)C(=O)N(c1cc(Cl)c(=O)n(C)c1)C2c1ccc(Cl)cc1 (centres unmarked) [Example 65, 5-(5-chloro-1-methyl-6-oxo-1,6-dihydropyridin-3-yl)-4-(4-chlorophenyl)-2-isopropyl-3-methyl-4,5-dihydropyrrolo[3,4-c]pyrazol-6(2H)-one] | 0.109 µM | 0.217 µM | > 10 µM
110 nM | 160 nM | 2600 nM | 120 nM | Cc1nn(C(C)C)c2c1C(c1ccc(Cl)cc1)N(c1cc(Cl)c(=O)n(C)c1)C2=O (centres unmarked) [Example 66, 5-(5-chloro-1-methyl-6-oxo-1,6-dihydropyridin-3-yl)-4-(4-chlorophenyl)-1-isopropyl-3-methyl-4,5-dihydropyrrolo[3,4-c]pyrazol-6(1H)-one] | 0.106 µM | 0.248 µM | > 10 µM
